From US9549921B2, “Heterocyclic compounds and methods of use thereof for the treatment of hepatitis C” (priority 2014, dated 2017)
Like-named read-outs stand apart in the source and are kept apart here.

How the values were obtained:
[1] = system: HCV replicon genotype 1a; experiment: HCV replicon assay, genotype 1a (cell ELISA for NS3/4A); assay type: cell-based, hepatitis C virus
Method: (§1) The HCV NS5B inhibitory activity of the present compounds may be tested using assays known in the art. The HCV NS5B polymerase inhibitors described herein have activities in a genotype 1b replicon assay as described in the Examples. The assay is performed by incubating a replicon harboring cell-line in the presence of inhibitor for a set period of time and measuring the effect of the inhibitor on HCV replicon replication either directly by quantifying replicon RNA level, or indirectly by measuring enzymatic activity of a co-encoded reporter enzyme such as luciferase or β-lactamase. By performing a series of such measurements at different inhibitor concentrations, the effective inhibitory concentration of the inhibitor (EC50 or EC90) is determined. See Jan M. Vrolijk et al., A replicons-based bioassay for the measurement of interferons in patients with chronic hepatitis C, 110 J. VIROLOGICAL METHODS 201 (2003). Such assays may also be run in an automated format for high through-put screening. See Paul Zuck et al., A cell-based β-lactamase reporter gene assay for the identification of inhibitors of hepatitis C virus replication, 334 ANALYTICAL BIOCHEMISTRY 344 (2004).
(§2) Measurement of inhibition by compounds was performed using the HCV replicon system. Several different replicons encoding different HCV genotypes or mutations were used. In addition, potency measurements were made using different formats of the replicon assay, including different ways of measurements and different plating formats. See Jan M. Vrolijk et al., A replicons-based bioassay for the measurement of interferons in patients with chronic hepatitis C, 110 J. VIROLOGICAL METHODS 201 (2003); Steven S. Carroll et al., Inhibition of Hepatitis C Virus RNA Replication by 2′-Modified Nucleoside Analogs, 278(14) J. BIOLOGICAL CHEMISTRY 11979 (2003). However, the underlying principles are common to all of these determinations, and are outlined below.
(§3) Stable neomycin phosphotransferase encoding replicons-harboring cell lines were used, so all cell lines were maintained under G418 selection prior to the assay. Potency was deteremined using a cell ELISA assay with an antibody to the replicons encoded NS3/4a protease. See Caterina Trozzi et al., In Vitro Selection and Characterization of Hepatitis C Virus Serine Protease Variants Resistant to an Active-Site Peptide Inhibitor, 77(6) J. Virol. 3669 (2003). To initiate an assay, replicon cells were plated in the presence of a dilution series of test compound in the absence of G418. Typically, the assays were performed in a 96-well plate formate for manual operation, or a 384-well plate format for automated assay. Replicon cells and compound were incubated for 96 hours. At the end of the assay, cells were washed free of media and compound, and the cells were then lysed. RNA was quantified indirectly through detection of replicon-encoded NS3/4A protein levels, through an ELISA-based assay with an antibody specific for NS3/4A. IC50 determinations were calculated as a percentage of a DMSO control by fitting the data to a four-parameter fit function and the data obtained is provided in the table below.
(§4) Data for selected compounds of the present invention was obtained for genotypes 1a and 1b using this method and is provided in the table below: […]

[2] = system: HCV replicon genotype 1b; experiment: HCV replicon assay, genotype 1b (cell ELISA for NS3/4A); assay type: cell-based, hepatitis C virus
Method: as §1, §2, §3, §4

[3] = Hepatitis C virus, 96 h, read-out: 1a IC50 (nM), HCV genotype 1a replicon cells, 96 hours incubation, NS3/4A ELISA readout, % of DMSO control
[4] = Hepatitis C virus, 96 h, read-out: 1b IC50 (nM), HCV genotype 1b replicon cells, 96 hours incubation, NS3/4A ELISA readout, % of DMSO control

Row | Structure (SMILES) | IC50 [1, 3] | IC50 [2, 4] | IC50 ([1]; read-out: 1a IC50, HCV genotype 1a replicon cells, 96 hours incubation, NS3/4A ELISA readout, % of DMSO control) | IC50 ([2]; read-out: 1b IC50, HCV genotype 1b replicon cells, 96 hours incubation, NS3/4A ELISA readout, % of DMSO control)
1 | CNC(=O)c1c(-c2ccc(F)cc2)oc2cc(N(C)S(C)(=O)=O)c([C@H]3CCCN(C(=O)c4nc5ccc(F)cc5s4)C3)cc12 [Example 93, 5-{(3R)-1-[(6-fluoro-1,3-benzothiazol-2-yl)carbonyl]piperidin-3-yl}-2-(4-fluorophenyl)-N-methyl-6-[methyl(methylsulfonyl)amino]-1-benzofuran-3-carboxamide] | 181 nM | 102 nM |  | 
2 | CNC(=O)c1c(-c2ccc(F)cc2)oc2cc(N(C)S(C)(=O)=O)c([C@@H]3CCCN(C(=O)c4c[nH]cc4-c4ccc(F)cc4)C3)cc12 [Example 71, 2-(4-fluorophenyl)-5-(1-{[4-(4-fluorophenyl)-1H-pyrrol-3-yl]carbonyl}piperidin-3-yl)-N-methyl-6-[methyl(methylsulfonyl)amino]-1-benzofuran-3-carboxamide] | 168 nM | 95.4 nM |  | 
3 | CNC(=O)c1c(-c2ccc(F)cc2)oc2cc(N(C)S(C)(=O)=O)c([C@@H]3CCCN(S(=O)(=O)Cc4ccncc4)C3)cc12 [Example 109, 2-(4-fluorophenyl)-N-methyl-6-[methyl(methylsulfonyl)amino]-5-{(3S)-1-[(pyridin-4-ylmethyl)sulfonyl]piperidin-3-yl}-1-benzofuran-3-carboxamide] | 104 nM | 26.2 nM |  | 
4 | CNC(=O)c1c(-c2ccc(F)cc2)oc2cc(N(C)S(C)(=O)=O)c([C@H]3CCCN(C(=O)c4cc5cc(C(F)(F)F)ccc5n4C)C3)cc12 [Example 89, 2-(4-fluorophenyl)-N-methyl-6-[methyl(methylsulfonyl)amino]-5-[(3R)-1-{[1-methyl-5-(trifluoromethyl)-1H-indol-2-yl]carbonyl}piperidin-3-yl]-1-benzofuran-3-carboxamide] | 84.4 nM | 45.2 nM |  | 
5 | CNC(=O)c1c(-c2ccc(F)cc2)oc2cc(N(C)S(C)(=O)=O)c([C@@H]3CCCN(S(=O)(=O)c4cccc(F)c4)C3)cc12 [Example 114, 2-(4-fluorophenyl)-5-{(3S)-1-[(3-fluorophenyl)sulfonyl]piperidin-3-yl}-N-methyl-6-[methyl(methylsulfonyl)amino]-1-benzofuran-3-carboxamide] | 34.2 nM | 8.2 nM |  | 
6 | CNC(=O)c1c(-c2ccc(F)cc2)oc2cc(N(C)S(C)(=O)=O)c([C@@H]3CCCN(C(=O)CC4CCCCC4)C3)cc12 [Example 68, 5-[1-(cyclohexylacetyl)piperidin-3-yl]-2-(4-fluorophenyl)-N-methyl-6-[methyl(methylsulfonyl)amino]-1-benzofuran-3-carboxamide] | 98 nM | 89 nM |  | 
7 | CNC(=O)c1c(-c2ccc(F)cc2)oc2cc(N(C)S(C)(=O)=O)c([C@@H]3CCCN(c4ncc(-c5ccc(F)cc5)o4)C3)cc12 (single isomer, unassigned) [Example 58, 2-(4-fluorophenyl)-5-(1-(5-(4-fluorophenyl)oxazol-2-yl)piperidin-3-yl)-N-methyl-6-(N-methylmethylsulfonamido)benzofuran-3-carboxamide] |  |  | 132 nM | 36.1 nM
8 | CNC(=O)c1c(-c2ccc(F)cc2)oc2cc(N(C)S(C)(=O)=O)c([C@H]3CCCN(S(=O)(=O)Cc4ccccc4)C3)cc12 [Example 137, 5-[(3R)-1-(benzylsulfonyl)piperidin-3-yl]-2-(4-fluorophenyl)-N-methyl-6-[methyl(methylsulfonyl)amino]-1-benzofuran-3-carboxamide] | 2.15 nM | 3.04 nM |  | 
9 | CNC(=O)c1c(-c2ccc(F)cc2)oc2cc(N(C)S(C)(=O)=O)c([C@@H]3CCCN(S(=O)(=O)Cc4ccccn4)C3)cc12 [Example 123, 2-(4-fluorophenyl)-N-methyl-6-[methyl(methylsulfonyl)amino]-5-{(3S)-1-[(pyridin-2-ylmethyl)sulfonyl]piperidin-3-yl}-1-benzofuran-3-carboxamide] | 106 nM | 29.8 nM |  | 
10 | CNC(=O)c1c(-c2ccc(F)cc2)oc2cc(N(C)S(C)(=O)=O)c([C@@H]3CCCN(C(=O)c4cc(-c5ccc(F)cc5)n[nH]4)C3)cc12 [Example 73, 2-(4-fluorophenyl)-5-(1-{[3-(4-fluorophenyl)-1H-pyrazol-5-yl]carbonyl}piperidin-3-yl)-N-methyl-6-[methyl(methylsulfonyl)amino]-1-benzofuran-3-carboxamide] | 50.5 nM | 23.4 nM |  | 
11 | CNC(=O)c1c(-c2ccc(F)cc2)oc2cc(N(C)S(C)(=O)=O)c([C@@H]3CCCN(C(=O)[C@H](N)c4ccccc4F)C3)cc12 (single isomer, unassigned) [Example 29] | 83.1 nM | 148 nM |  | 
12 | CNC(=O)c1c(-c2ccc(F)cc2)oc2cc(N(C)S(C)(=O)=O)c([C@H]3CCCN(C(=O)c4[nH]c5c(F)cccc5c4C)C3)cc12 [Example 38, (R)-5-(1-(7-fluoro-3-methyl-1H-indole-2-carbonyl)piperidin-3-yl)-2-(4-fluorophenyl)-N-methyl-6-(N-methylmethylsulfonamido)benzofuran-3-carboxamide] | 277 nM | 116 nM |  | 
13 | CNC(=O)c1c(-c2ccc(F)cc2)oc2cc(N(C)S(C)(=O)=O)c([C@H]3CCCN(C(=O)c4c(C)c5cc(F)ccc5n4C)C3)cc12 [Example 86, 5-{(3R)-1-[(5-fluoro-1,3-dimethyl-1H-indol-2-yl)carbonyl]piperidin-3-yl}-2-(4-fluorophenyl)-N-methyl-6-[methyl(methylsulfonyl)amino]-1-benzofuran-3-carboxamide] | 234 nM | 115 nM |  | 
14 | CNC(=O)c1c(-c2ccc(F)cc2)oc2cc(N(C)S(C)(=O)=O)c(C3CCN(C)C(c4cc5c(F)cccc5[nH]4)C3)cc12 (stereo not drawn) [Example 16, 5-(2-(4-fluoro-1H-indol-2-yl)-1-methylpiperidin-4-yl)-2-(4-fluorophenyl)-N-methyl-6-(N-methylmethylsulfonamido)benzofuran-3-carboxamide] | 333 nM | 106 nM |  | 
15 | CCn1c(C(=O)N2CCC[C@@H](c3cc4c(C(=O)NC)c(-c5ccc(F)cc5)oc4cc3N(C)S(C)(=O)=O)C2)cc2c(F)cccc21 [Example 33, (S)-5-(1-(1-ethyl-4-fluoro-1H-indole-2-carbonyl)piperidin-3-yl)-2-(4-fluorophenyl)-N-methyl-6-(N-methylmethylsulfonamido)benzofuran-3-carboxamide] | 130 nM | 196 nM |  | 
16 | CNC(=O)c1c(-c2ccc(F)cc2)oc2cc(N(C)S(C)(=O)=O)c([C@@H]3CCCN(C(=O)c4nc5ccc(F)cc5[nH]4)C3)cc12 [Example 76, 5-{1-[(6-fluoro-1H-benzimidazol-2-yl)carbonyl]piperidin-3-yl}-2-(4-fluorophenyl)-N-methyl-6-[methyl(methylsulfonyl)amino]-1-benzofuran-3-carboxamide] | 49.4 nM | 9.96 nM |  | 
17 | CNC(=O)c1c(-c2ccc(F)cc2)oc2cc(N(C)S(C)(=O)=O)c([C@@H]3CCCN(C(=O)c4oc5ccc(F)cc5c4C)C3)cc12 [Example 62, 5-{1-[(5-fluoro-3-methyl-1-benzofuran-2-yl)carbonyl]piperidin-3-yl}-2-(4-fluorophenyl)-N-methyl-6-[methyl(methylsulfonyl)amino]-1-benzofuran-3-carboxamide] | 192 nM | 41.2 nM |  | 
18 | CNC(=O)c1c(-c2ccc(F)cc2)oc2cc(N(C)S(C)(=O)=O)c([C@@H]3CCCN(C(=O)c4nc5ccccc5n4C)C3)cc12 (single isomer, unassigned) [Example 23, 2-(4-fluorophenyl)-N-methyl-5-(1-(1-methyl-1H-benzo[d]imidazole-2-carbonyl)piperidin-3-yl)-6-(N-methylmethylsulfonamido)benzofuran-3-carboxamide] | 45.5 nM | 57.7 nM |  | 
